Laboratory results reported in patent US12098144B2, “Piperazine indazole glucocorticoid receptor antagonists” (Corcept Therapeutics Incorporated, priority 2021, dated 2024).
pIC50: −log10 of the molar value.

Biological target: T1, glucocorticoid receptor (Homo sapiens, UniProt P04150)
T1 construct: endogenous in cells; ATCC cat
T1 sequence (P04150 1-777): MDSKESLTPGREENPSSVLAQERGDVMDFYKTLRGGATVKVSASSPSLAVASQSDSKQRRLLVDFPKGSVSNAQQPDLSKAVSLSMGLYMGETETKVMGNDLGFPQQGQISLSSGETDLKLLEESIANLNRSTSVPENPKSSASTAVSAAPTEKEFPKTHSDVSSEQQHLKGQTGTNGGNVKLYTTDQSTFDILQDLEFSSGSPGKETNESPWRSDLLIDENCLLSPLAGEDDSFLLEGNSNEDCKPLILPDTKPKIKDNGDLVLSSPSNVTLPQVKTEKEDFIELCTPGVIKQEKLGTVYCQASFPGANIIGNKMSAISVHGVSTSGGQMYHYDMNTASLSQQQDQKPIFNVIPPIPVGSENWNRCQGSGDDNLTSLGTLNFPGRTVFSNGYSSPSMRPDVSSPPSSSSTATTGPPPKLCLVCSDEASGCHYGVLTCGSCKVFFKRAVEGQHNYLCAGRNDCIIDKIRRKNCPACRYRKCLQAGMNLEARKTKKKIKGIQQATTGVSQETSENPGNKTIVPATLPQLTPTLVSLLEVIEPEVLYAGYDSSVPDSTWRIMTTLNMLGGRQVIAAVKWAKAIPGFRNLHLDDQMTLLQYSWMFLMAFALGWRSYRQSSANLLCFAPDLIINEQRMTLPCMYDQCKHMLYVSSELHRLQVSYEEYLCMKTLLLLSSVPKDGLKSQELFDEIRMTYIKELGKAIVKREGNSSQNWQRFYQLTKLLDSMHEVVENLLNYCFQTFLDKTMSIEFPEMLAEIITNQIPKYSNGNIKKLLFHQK
Assay: Hep G2 TAT IC50: inhibition of dexamethasone-induced TAT in HepG2 cells (384 well)
Assay type: cell-based
Protocol: Glucocorticoid mediated activation of TAT occurs by transactivation of glucocorticoid response elements in the TAT promoter by glucocorticoid receptor/agonist complex.
HepG2 cells were cultured using MEME media supplemented with 10% (v/v) foetal bovine serum, 2 mM L-glutamine, 1% (v/v) NEAA, and 1% (v/v) penstrep, at 37° C., 5%/95% (v/v) CO2/air.
Compounds were diluted from a 10 mM stock via an Echo Acoustic liquid handler into 10 μL assay media to generate a 10-point half-log dilution curve.
HepG2 cells were then lysed with 8 μL of cell lysis buffer containing a protease inhibitor cocktail for 15 minutes at 25° C. […] After a 2-hour incubation at 37° C. the reaction was terminated by the addition of 8 μL of 5 M aqueous potassium hydroxide solution, and the plates incubated for a further 30 minutes at 37° C.
[compound] and fitting the data to a 4-parameter logistic equation.

Row | pIC50 | Compound
1 | 6.23 | Cc1cc(-n2ncc3cc(C4CN(S(=O)(=O)N5CCOCC5)CCN4CCC(F)(F)F)c(Cl)cc32)cn(C)c1=O (centres unmarked) [Example 211, 5-(6-chloro-5-(4-morpholinosulfonyl-1-(3,3,3-trifluoropropyl)piperazin-2-yl)indazol-1-yl)-1,3-dimethyl-pyridin-2-one]
2 | 6.08 | Cc1cc2c(cnn2-c2ccc(F)cc2)cc1C1CN(S(=O)(=O)c2cccnn2)CCN1CCC(F)(F)F (single isomer, unassigned) [Example 176, 1-(4-fluorophenyl)-6-methyl-5-(4-pyridazin-3-ylsulfonyl-1-(3,3,3-trifluoropropyl)piperazin-2-yl)indazole]
